Assay results reported in patent publication US20080045580A1, “Novel Isoxazole Compounds Having Ppar Agonist Activity” (DR REDDY'S LABORATORIES LIMITED, priority 2004, published 2008).

Legend:
[1] = target: T1, human PPARα (Homo sapiens, UniProt Q07869); assay: in vitro PPARα transactivation (GAL4-LBD luciferase reporter in HEK-293 cells); type: cell-based
T1 construct: expressed in transfected cells; host or cells: HEK-293
T1 sequence (Q07869 239-466 limits assumed): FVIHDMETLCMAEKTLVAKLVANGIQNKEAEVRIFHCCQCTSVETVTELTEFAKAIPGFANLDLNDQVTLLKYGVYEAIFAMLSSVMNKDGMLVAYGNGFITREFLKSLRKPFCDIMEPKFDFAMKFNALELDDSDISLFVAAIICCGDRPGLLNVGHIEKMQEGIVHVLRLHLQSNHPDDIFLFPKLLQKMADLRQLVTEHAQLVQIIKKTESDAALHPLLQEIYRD
From the text: Generally, suitable PPAR agonists are believed to be useful for attenuating and/or treatment of diabetic dyslipidemia, metabolic syndrome, diabetes, cardiovascular disease, and obesity. The following procedure was used for in vitro determination of PPARα, γ and δ transactivation.
(§1) The ligand binding domain of human PPARγ1, PPARα or PPARδ was fused to the C-terminal end of DNA binding domain of yeast transcription factor GAL4 in eukaryotic expression vector. Using SuperFect (Qiagen), HEK-293 cells were transfected with this plasmid and a reporter plasmid harboring the luciferase gene driven under the control of 5 tandem GLA4 response elements. In some experiments, pAdVantage vector (Promega) was used to enhance luciferase expression. Compounds were added approximately 48 hours after transfection at various concentrations and incubated overnight. The cells were lysed and the luciferase activity was measured using the LucLite kit in Top Count (Packard). Luciferase activity was expressed as fold activation relative to untreated cells in the same experiment.

[2] = target: T2, human PPARγ1 (Homo sapiens, UniProt P37231); assay: in vitro PPARγ transactivation (GAL4-LBD luciferase reporter in HEK-293 cells); type: cell-based
T2 construct: expressed in transfected cells; host or cells: HEK-293
T2 sequence (P37231 238-503 limits assumed): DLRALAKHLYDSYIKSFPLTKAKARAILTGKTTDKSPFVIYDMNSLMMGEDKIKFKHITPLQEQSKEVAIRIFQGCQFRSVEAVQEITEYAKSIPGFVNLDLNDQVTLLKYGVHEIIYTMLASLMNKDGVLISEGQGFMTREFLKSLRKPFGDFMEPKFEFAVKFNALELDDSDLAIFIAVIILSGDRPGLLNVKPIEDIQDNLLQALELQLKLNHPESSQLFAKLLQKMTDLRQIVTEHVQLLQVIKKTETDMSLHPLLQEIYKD
From the text: (§2) The following procedure was used for in vitro determination of PPARα, γ and δ transactivation.
as §1

[3] = target: T3, human PPARδ (Homo sapiens, UniProt Q03181); assay: in vitro PPARδ transactivation (GAL4-LBD luciferase reporter in HEK-293 cells); type: cell-based
T3 construct: expressed in transfected cells; host or cells: HEK-293
T3 sequence (Q03181 211-439 limits assumed): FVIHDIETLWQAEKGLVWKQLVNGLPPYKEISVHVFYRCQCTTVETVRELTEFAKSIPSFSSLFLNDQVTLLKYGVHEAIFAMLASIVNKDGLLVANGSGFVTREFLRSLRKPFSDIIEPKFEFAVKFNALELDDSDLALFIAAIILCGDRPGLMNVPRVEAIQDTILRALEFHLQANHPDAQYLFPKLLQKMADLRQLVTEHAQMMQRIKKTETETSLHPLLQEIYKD
From the text: as §2, §1

[4] = test system: Male Swiss albino mice; assay: plasma triglyceride lowering in Swiss albino mice; type: in vivo; details: plasma triglycerides
Description: Male Swiss albino mice (SAM) were obtained from National Institute Nutrition (NIN, Hyderabad, India) and housed in Dr. Reddy's Laboratories Ltd (DRL) animal house. All these animals were maintained under 12 hour light and dark cycle at 25±1° C. Animals were given standard laboratory chow (NIN, Hyderabad, India) and water, ad libitum. Mice of 20-25 grams body weight range were used. See Olivier, et al., Atherosclerosis, 1988, 70:107-114, incorporated herein by reference in its entirety. The test compounds were administered orally to mice at the doses shown in the following in table for 6 days. […] After centrifugation, plasma was separated for plasma triglyceride and total cholesterol measurement. See Wieland, Methods of Enzymatic Analysis, Bergermeyer, ed., 1963, 211-214; Trinder, Ann. Clin. Biochenz., 1969, 6:24-27, incorporated herein by reference in their entireties. Measurement of cholesterol and plasma triglyceride was done using a […] autoanalyser (Merck). The percent reductions in plasma triglycerides (TG)/total cholesterol were calculated according to the following formula: [formula] OC=Zero day control group value OT=Zero day treated group value TC=Test day control group value TT=Test day treated group value.

[5] = test system: hypercholesterolemic Male Sprague Dawley rats; assay: lipid lowering in hypercholesterolemic Sprague Dawley rats; type: in vivo; details: hypercholesterolemic SD rats, 3 mg/kg orally for 3 days; for % Reduction TG: plasma triglycerides; for % Reduction TC: total cholesterol; for % Reduction LDL: LDL cholesterol calculated from TC, HDL, TG; for HDL % increase: values represent % increase
Description: Male Sprague Dawley rats (NIN stock) were bred in DRL animal house. Animals were maintained under 12 hour light and dark cycle at 25±1° C. Rats of 180-200 gram body weight range were used for the experiment. Animals were made hypercholesterolemic by feeding 2% cholesterol and 1% sodium cholate mixed with standard laboratory chow (NIN) for 6 days. Throughout the experimental period the animals were maintained on the same diet. Control rats were treated with vehicle alone (0.25% CMC; 10 ml/kg). Blood samples were collected in fed state 1 hour after drug administration on 0 and 3 days of treatment from the retro-orbital sinus through heparinized capillary tubes containing EDTA. After centrifugation, plasma sample was separated for total cholesterol, HDL and plasma triglyceride measurement. Measurement of total cholesterol, HDL and plasma triglyceride was done using a Vitalab Selectra autoanalyser (Merck). HDL was measured using a commercial kit. LDL and VLDL cholesterol were calculated from the data obtained for total cholesterol, HDL and plasma triglyceride.
The percent reductions in plasma triglycerides (TG)/total cholesterol (TC) were calculated as described in Example 55. The levels of LDL and VLDL cholesterol were calculated according to the following formulas: LDL cholesterol in mg/dl=[Total cholesterol−HDL cholesterol−Triglyceride/5] VLDL cholesterol in mg/dl=[Total cholesterol−HDL cholesterol−LDL cholesterol]

## CCOC(=O)C1(Oc2ccc(OCc3cc(-c4ccccc4)no3)cc2)CCCC1 [Example 2]
[1]; 1 μM
  PPARα luciferase fold activation relative to untreated cells: 1.2
[1]; 10 μM
  PPARα luciferase fold activation relative to untreated cells: 1.0
[1]; 50 μM
  PPARα luciferase fold activation relative to untreated cells: 1.0
[2]; 1 μM
  PPARγ luciferase fold activation relative to untreated cells: 1.4
[2]; 10 μM
  PPARγ luciferase fold activation relative to untreated cells: 2.4
[2]; 50 μM
  PPARγ luciferase fold activation relative to untreated cells: 2.4
other
  melting point: 83 to 85 °C

## CCC(C)(Oc1ccc(OCc2cc(-c3ccc(OS(C)(=O)=O)cc3)no2)cc1)C(=O)O (stereo not drawn) [Example 5]
[1]; 1 μM
  PPARα luciferase fold activation relative to untreated cells: 1.7
[1]; 10 μM
  PPARα luciferase fold activation relative to untreated cells: 3.8
[1]; 50 μM
  PPARα luciferase fold activation relative to untreated cells: 6.0
[3]; 1 μM
  PPARδ luciferase fold activation relative to untreated cells: 9.0
[3]; 10 μM
  PPARδ luciferase fold activation relative to untreated cells: 10
[3]; 50 μM
  PPARδ luciferase fold activation relative to untreated cells: 33
[2]; 1 μM
  PPARγ luciferase fold activation relative to untreated cells: 0.9
[2]; 10 μM
  PPARγ luciferase fold activation relative to untreated cells: 1.2
[2]; 50 μM
  PPARγ luciferase fold activation relative to untreated cells: 6.4
[4]; 3 mg/kg orally for 6 days
  % reduction in TG: 75%

## CCC(C)(Oc1ccc(OCc2cc(-c3ccccc3)no2)cc1)C(=O)O (stereo not drawn) [Example 8]
[1]; 1 μM
  PPARα luciferase fold activation relative to untreated cells: 1.3
[1]; 10 μM
  PPARα luciferase fold activation relative to untreated cells: 2.6
[1]; 50 μM
  PPARα luciferase fold activation relative to untreated cells: 3.5
[2]; 1 μM
  PPARγ luciferase fold activation relative to untreated cells: 0.5
[2]; 10 μM
  PPARγ luciferase fold activation relative to untreated cells: 1.2
[2]; 50 μM
  PPARγ luciferase fold activation relative to untreated cells: 4.1
[4]; 3 mg/kg orally for 6 days
  % reduction in TG: 52%
other
  melting point: 70 to 74 °C

## O=C(O)C1(Oc2ccc(OCc3cc(-c4ccccc4)no3)cc2)CCCC1 [Example 9]
[1]; 1 μM
  PPARα luciferase fold activation relative to untreated cells: 0.8
[1]; 10 μM
  PPARα luciferase fold activation relative to untreated cells: 1.2
[1]; 50 μM
  PPARα luciferase fold activation relative to untreated cells: 1.7
[2]; 1 μM
  PPARγ luciferase fold activation relative to untreated cells: 1.2
[2]; 10 μM
  PPARγ luciferase fold activation relative to untreated cells: 0.9
[2]; 50 μM
  PPARγ luciferase fold activation relative to untreated cells: 2.4
other
  melting point: 135 to 137 °C

## CCC(C)(Oc1ccc(OCCCc2cc(-c3ccccc3)no2)cc1)C(=O)O (stereo not drawn) [Example 10]
[1]; 1 μM
  PPARα luciferase fold activation relative to untreated cells: 4.0
[1]; 10 μM
  PPARα luciferase fold activation relative to untreated cells: 5.7
[1]; 50 μM
  PPARα luciferase fold activation relative to untreated cells: 5.1
[3]; 1 μM
  PPARδ luciferase fold activation relative to untreated cells: 7.5
[3]; 10 μM
  PPARδ luciferase fold activation relative to untreated cells: 23
[3]; 50 μM
  PPARδ luciferase fold activation relative to untreated cells: 47
[2]; 1 μM
  PPARγ luciferase fold activation relative to untreated cells: 0.9
[2]; 10 μM
  PPARγ luciferase fold activation relative to untreated cells: 3.5
[2]; 50 μM
  PPARγ luciferase fold activation relative to untreated cells: 9.5
[4]; 3 mg/kg orally for 6 days
  % reduction in TG: 75%
other
  melting point: 115 to 117 °C

## CCC(C)(Oc1ccc(OCc2cc(-c3ccc(C(F)(F)F)cc3)no2)cc1)C(=O)O (stereo not drawn) [Example 11]
[1]; 1 μM
  PPARα luciferase fold activation relative to untreated cells: 4.1
[1]; 10 μM
  PPARα luciferase fold activation relative to untreated cells: 4.0
[1]; 50 μM
  PPARα luciferase fold activation relative to untreated cells: 4.0
[2]; 1 μM
  PPARγ luciferase fold activation relative to untreated cells: 2.4
[2]; 10 μM
  PPARγ luciferase fold activation relative to untreated cells: 2.7
[2]; 50 μM
  PPARγ luciferase fold activation relative to untreated cells: 3.6
[4]; 3 mg/kg orally for 6 days
  % reduction in TG: 65%
[5]
  % Reduction TG: 55%
  % Reduction TC: 71%
  % Reduction LDL: 76%
  HDL % increase: 139%
other
  melting point: 136 to 138 °C

## CC[C@@](C)(Oc1ccc(OCc2cc(-c3ccc(OS(C)(=O)=O)cc3)no2)cc1)C(=O)O [Example 26]
[1]; 1 μM
  PPARα luciferase fold activation relative to untreated cells: 1.8
[1]; 10 μM
  PPARα luciferase fold activation relative to untreated cells: 5.7
[1]; 50 μM
  PPARα luciferase fold activation relative to untreated cells: 5.8
[2]; 1 μM
  PPARγ luciferase fold activation relative to untreated cells: 0.1
[2]; 10 μM
  PPARγ luciferase fold activation relative to untreated cells: 1.0
[2]; 50 μM
  PPARγ luciferase fold activation relative to untreated cells: 5.3
[4]; 1 mg/kg orally for 6 days
  % reduction in TG: 50%

## CC(C)(Oc1ccc(CCCc2cc(-c3ccccc3)no2)cc1)C(=O)O [Example 28, 2-methyl-2-{4-[3-(3-phenylisoxazol-5-yl)propyl]phenoxy}propanoic acid]
[1]; 1 μM
  PPARα luciferase fold activation relative to untreated cells: 1.5
[1]; 10 μM
  PPARα luciferase fold activation relative to untreated cells: 4.8
[1]; 50 μM
  PPARα luciferase fold activation relative to untreated cells: 5.9
[2]; 1 μM
  PPARγ luciferase fold activation relative to untreated cells: 2.0
[2]; 10 μM
  PPARγ luciferase fold activation relative to untreated cells: 2.8
[2]; 50 μM
  PPARγ luciferase fold activation relative to untreated cells: 12.4
[4]; 3 mg/kg orally for 6 days
  % reduction in TG: 48%
[5]
  % Reduction TG: 62%
  % Reduction TC: 70%
  HDL % increase: 132%

## O=C(O)[C@]1(Cc2ccc(OCc3cc(-c4ccc(C(F)(F)F)cc4)no3)cc2)CCCO1 [Example 37]
[4]; 3 mg/kg orally for 6 days
  % reduction in TG: 69%
[5]
  % Reduction TG: 68%
  % Reduction TC: 69%
  % Reduction LDL: 75%
  HDL % increase: 138%

## O=C(O)C1(Cc2ccc(OCc3cc(-c4ccccc4)no3)cc2)CCCO1 (stereo not drawn) [Example 39]
[1]; 1 μM
  PPARα luciferase fold activation relative to untreated cells: 1.1 (1.1)
[1]; 10 μM
  PPARα luciferase fold activation relative to untreated cells: 3.9
[1]; 50 μM
  PPARα luciferase fold activation relative to untreated cells: 4.7
[2]; 1 μM
  PPARγ luciferase fold activation relative to untreated cells: 1.8
[2]; 10 μM
  PPARγ luciferase fold activation relative to untreated cells: 3.9
[2]; 50 μM
  PPARγ luciferase fold activation relative to untreated cells: 9.0
[4]; 3 mg/kg orally for 6 days
  % reduction in TG: 44%
